From patent publication US20210009564A1, “CALPAIN MODULATORS AND THERAPEUTIC USES THEREOF” (BLADE THERAPERTICS, INC., priority 2018, published 2021)

Experiments:
Human Calpain 1/NS1 = target: T1, Human Calpain 1/NS1 (Homo sapiens, UniProt P07384); assay: Calpain inhibition, continuous fluorescence (FRET substrate) assay, calpain 1; assay type: biochemical; conditions: SensoLyte 520 FRET substrate, 25C
T1 sequence (P07384 1-714): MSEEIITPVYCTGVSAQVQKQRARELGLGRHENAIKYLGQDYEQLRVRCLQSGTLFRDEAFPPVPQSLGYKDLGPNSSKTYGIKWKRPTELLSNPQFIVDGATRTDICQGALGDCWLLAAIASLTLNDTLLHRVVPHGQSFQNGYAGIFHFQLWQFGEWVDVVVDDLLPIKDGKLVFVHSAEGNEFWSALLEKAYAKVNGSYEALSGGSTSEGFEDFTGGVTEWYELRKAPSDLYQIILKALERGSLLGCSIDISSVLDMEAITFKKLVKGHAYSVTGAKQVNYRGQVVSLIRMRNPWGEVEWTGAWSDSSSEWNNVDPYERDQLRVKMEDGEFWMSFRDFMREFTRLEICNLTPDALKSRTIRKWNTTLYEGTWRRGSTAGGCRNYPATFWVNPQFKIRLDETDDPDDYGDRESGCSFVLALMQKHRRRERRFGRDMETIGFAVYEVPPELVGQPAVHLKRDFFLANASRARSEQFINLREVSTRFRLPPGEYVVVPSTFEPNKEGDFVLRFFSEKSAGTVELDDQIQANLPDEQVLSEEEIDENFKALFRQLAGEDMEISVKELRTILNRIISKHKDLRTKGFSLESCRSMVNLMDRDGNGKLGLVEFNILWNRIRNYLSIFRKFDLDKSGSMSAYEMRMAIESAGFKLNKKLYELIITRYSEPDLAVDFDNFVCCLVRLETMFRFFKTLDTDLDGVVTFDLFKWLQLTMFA
T1 sequence (P04632 1-268 partner): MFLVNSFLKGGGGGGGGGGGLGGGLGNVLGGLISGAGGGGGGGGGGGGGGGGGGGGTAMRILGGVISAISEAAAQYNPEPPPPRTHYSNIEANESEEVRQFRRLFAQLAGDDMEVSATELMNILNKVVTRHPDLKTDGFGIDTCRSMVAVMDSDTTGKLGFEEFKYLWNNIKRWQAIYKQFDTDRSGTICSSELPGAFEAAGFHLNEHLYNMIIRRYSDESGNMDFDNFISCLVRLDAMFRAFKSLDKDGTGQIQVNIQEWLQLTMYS
Method: (§1) Calpain 1, 2, and 9 activity and inhibition thereof was assessed by means of a continuous fluorescence assay. The SensoLyte 520 Calpain substrate (Anaspec Inc) was optimized for detecting calpain activity. This substrate contains an internally quenched 5-FAM/QXLTM 520 FRET pair. Calpains 1, 2, and 9 cleave the FRET substrate into two separate fragments resulting in an increase of 5-FAM fluorescence that is proportional to calpain activity Assays were typically setup in black 384-well plates using automated liquid handling as follows. Calpain assay base buffer typically contains 50 mM Tris, pH 7.5, 100 mM NaCl and 1 mM DTT. Inhibitors were serially diluted in DMSO and used to setup 2× mixtures with calpains in the aforementioned buffer. After incubation at ambient temperature (25C), the reaction was initiated by adding a 2× mix of the fluorescent peptide substrate and CaCl2) (required for in-situ calpain activation) in the same buffer. Reaction progress curve data were typically collected for 10 min using excitation/emission wavelengths of 490 nm/520 nm on SpectraMax i3× or the FLIPR-Tetra plate readers (Molecular Devices Inc). Reaction rates were calculated from progress curve slopes typically over 1-5 min. Dose response curves (rate vs. log inhibitor concentration) were typically fit to a 4-parameter logistic function to extract IC50 values.

[1] = tested on: Calpain activity in SH-SY5Y cells; assay: SH-SY5Y spectrin breakdown product (SBDP-150) western blot assay; assay type: cell-based; conditions: Homo sapiens, read-out: SH-SY5Y Spectrin IC50
[2] = tested on: Calpain activity in SH-SY5Y cells; assay: SH-SY5Y Suc-LLVY-AMC fluorescence assay; assay type: cell-based; conditions: Homo sapiens, read-out: SH-SY5Y + AMC IC50
Human Calpain 2/NS1 = target: T2, Human Calpain 2/NS1 (Homo sapiens, UniProt P17655); assay: Calpain inhibition, continuous fluorescence (FRET substrate) assay, calpain 2; assay type: biochemical; conditions: SensoLyte 520 FRET substrate, 25C
T2 sequence (P17655 1-700): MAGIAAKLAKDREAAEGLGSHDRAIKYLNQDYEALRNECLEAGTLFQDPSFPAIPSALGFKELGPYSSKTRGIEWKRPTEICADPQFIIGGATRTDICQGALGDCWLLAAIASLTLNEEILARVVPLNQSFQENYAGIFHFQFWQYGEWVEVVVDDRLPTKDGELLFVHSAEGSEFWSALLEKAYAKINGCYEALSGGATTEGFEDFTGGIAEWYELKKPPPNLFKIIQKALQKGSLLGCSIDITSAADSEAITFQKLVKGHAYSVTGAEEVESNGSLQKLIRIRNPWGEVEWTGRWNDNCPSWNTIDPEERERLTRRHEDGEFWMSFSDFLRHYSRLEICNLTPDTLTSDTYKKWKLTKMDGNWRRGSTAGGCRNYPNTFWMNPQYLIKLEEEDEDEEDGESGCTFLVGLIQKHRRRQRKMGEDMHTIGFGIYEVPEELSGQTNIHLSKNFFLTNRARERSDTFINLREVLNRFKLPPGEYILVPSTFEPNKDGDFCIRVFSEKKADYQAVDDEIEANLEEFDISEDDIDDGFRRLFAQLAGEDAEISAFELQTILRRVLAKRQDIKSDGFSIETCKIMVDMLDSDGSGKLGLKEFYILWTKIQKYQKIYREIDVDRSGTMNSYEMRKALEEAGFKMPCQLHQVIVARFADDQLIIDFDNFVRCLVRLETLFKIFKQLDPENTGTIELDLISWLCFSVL
T2 sequence (P04632 1-268 partner): T1 sequence (P04632 1-268 partner)
Method: as §1

Human Calpain 9/NS1 = target: T3, Human Calpain 9/NS1 (Homo sapiens, UniProt O14815); assay: Calpain inhibition, continuous fluorescence (FRET substrate) assay, calpain 9; assay type: biochemical; conditions: SensoLyte 520 FRET substrate, 25C
T3 sequence (O14815 1-690): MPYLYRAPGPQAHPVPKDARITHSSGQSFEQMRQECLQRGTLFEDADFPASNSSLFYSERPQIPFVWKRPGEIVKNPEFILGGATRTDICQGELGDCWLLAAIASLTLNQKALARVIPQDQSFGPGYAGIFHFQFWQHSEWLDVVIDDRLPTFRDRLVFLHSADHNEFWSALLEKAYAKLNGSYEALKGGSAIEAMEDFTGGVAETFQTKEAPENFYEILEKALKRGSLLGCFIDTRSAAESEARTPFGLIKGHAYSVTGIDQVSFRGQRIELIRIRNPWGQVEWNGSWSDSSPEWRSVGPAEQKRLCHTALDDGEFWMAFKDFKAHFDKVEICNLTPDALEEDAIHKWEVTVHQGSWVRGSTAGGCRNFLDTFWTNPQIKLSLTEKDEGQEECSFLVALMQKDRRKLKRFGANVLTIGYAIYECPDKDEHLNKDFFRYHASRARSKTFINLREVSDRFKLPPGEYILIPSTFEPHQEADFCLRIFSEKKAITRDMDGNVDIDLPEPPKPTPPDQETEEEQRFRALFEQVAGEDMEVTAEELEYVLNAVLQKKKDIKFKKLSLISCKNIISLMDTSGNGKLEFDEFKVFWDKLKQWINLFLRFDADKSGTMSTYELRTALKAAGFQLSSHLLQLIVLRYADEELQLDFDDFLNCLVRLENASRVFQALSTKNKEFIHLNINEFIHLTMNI
T3 sequence (P04632 1-268 partner): T1 sequence (P04632 1-268 partner)
Method: as §1

[3] = SH-SY5Y cells, 25 uM A23187, SBDP-150 western blot
[4] = SH-SY5Y cells, 100 uM Suc-LLVY-AMC

Structure (SMILES) | IC50 (Human Calpain 1/NS1) | IC50 [1, 3] | IC50 [2, 4] | IC50 (Human Calpain 2/NS1) | IC50 (Human Calpain 9/NS1) | IC50 ([1]; SH-SY5Y) | IC50 ([2]; SH-SY5Y)
CC(C)n1c(=O)[nH]c2c(-c3nn(C)cc3C(=O)NC(Cc3ccccc3)C(=O)C(N)=O)cccc21 (centres unmarked) [Compound 103, N-(4-AMINO-3,4-DIOXO-1-PHENYLBUTAN-2-YL)-3-(1-ISOPROPYL-2-OXO-2,3-DIHYDRO-1H-BENZO[D]IMIDAZOL-4-YL)-1-METHYL-1H-PYRAZOLE-4-CARBOXAMIDE] | < 3 µM | < 10 µM | 10 to 25 µM | < 3 µM | < 3 µM |  | 
Cc1cc(C(=O)NC(Cc2ccccc2)C(=O)C(N)=O)n(-c2ncc(-c3ccccc3)cn2)n1 (centres unmarked) [Compound 30, N-(4-AMINO-3,4-DIOXO-1-PHENYLBUTAN-2-YL)-3-METHYL-1-(5-PHENYLPYRIMIDIN-2-YL)-1H-PYRAZOLE-5-CARBOXAMIDE] | < 3 µM |  |  | < 3 µM | < 3 µM | < 10 µM | > 25 µM
O=C(NC(Cc1ccccc1)C(=O)c1nc2ccccc2o1)c1nsnc1-c1ccccc1 (centres unmarked) [Compound 86, N-(1-(BENZO[d]OXAZOL-2-YL)-1-OXO-3-PHENYLPROPAN-2-YL)-4-PHENYL-1,2,5-THIADIAZOLE-3-CARBOXAMIDE] | > 10 µM | > 25 µM | > 25 µM | > 10 µM | > 10 µM |  | 
NC(=O)C(=O)C(Cc1ccccc1)NC(=O)c1cn(C(F)F)nc1-c1cccc2ccncc12 (centres unmarked) [Compound 22, N-(4-AMINO-3,4-DIOXO-1-PHENYLBUTAN-2-YL)-1-(DIFLUOROMETHYL)-3-(ISOQUINOLIN-8-YL)-1H-PYRAZOLE-4-CARBOXAMIDE] | < 3 µM | < 10 µM | < 10 µM | < 3 µM | < 3 µM |  | 
Cc1cc(-c2nsnc2C(=O)NC(Cc2ccccc2)C(=O)C(N)=O)c(C)o1 (centres unmarked) [Compound 23, N-(4-AMINO-3,4-DIOXO-1-PHENYLBUTAN-2-YL)-4-(2,5-DIMETHYLFURAN-3-YL)-1,2,5-THIADIAZOLE-3-CARBOXAMIDE] | < 3 µM | < 10 µM | < 10 µM | < 3 µM | < 3 µM |  | 
Cn1cc(C(=O)NC(Cc2ccc(Cl)cc2)C(=O)C(N)=O)c(-c2ccccc2F)n1 (centres unmarked) [Compound 97, N-(4-AMINO-1-(4-CHLOROPHENYL)-3,4-DIOXOBUTAN-2-YL)-3-(2-FLUOROPHENYL)-1-METHYL-1H-PYRAZOLE-4-CARBOXAMIDE] | < 3 µM | < 10 µM | < 10 µM | < 3 µM | < 3 µM |  | 
Cc1occc1-c1nn(C)cc1C(=O)NC(Cc1ccccc1)C(=O)C(N)=O (centres unmarked) [Compound 28, N-(4-AMINO-3,4-DIOXO-1-PHENYLBUTAN-2-YL)-1-METHYL-3-(2-METHYLFURAN-3-YL)-1H-PYRAZOLE-4-CARBOXAMIDE] | < 3 µM | > 25 µM | < 10 µM | < 3 µM | < 3 µM |  | 
NC(=O)C(=O)C(Cc1ccccc1)NC(=O)c1cn(C(F)F)nc1-c1cccc2ocnc12 (centres unmarked) [Compound 71, N-(4-AMINO-3,4-DIOXO-1-PHENYLBUTAN-2-YL)-3-(BENZO[D]OXAZOL-4-YL)-1-(DIFLUOROMETHYL)-1H-PYRAZOLE-4-CARBOXAMIDE] | < 3 µM | < 10 µM | < 10 µM | < 3 µM | < 3 µM |  | 
NC(=O)C(=O)C(Cc1ccccc1)NC(=O)c1cn(C(F)F)nc1-c1ncnc2ccccc12 (centres unmarked) [Compound 63, N-(4-AMINO-3,4-DIOXO-1-PHENYLBUTAN-2-YL)-1-(DIFLUOROMETHYL)-3-(QUINAZOLIN-4-YL)-1H-PYRAZOLE-4-CARBOXAMIDE] | < 3 µM | 10 to 25 µM | < 10 µM | < 3 µM | < 3 µM |  | 

Further lines, with some results ahead:

IC50 (Human Calpain 1/NS1) | IC50 [1, 3] | IC50 [2, 4] | IC50 (Human Calpain 2/NS1) | IC50 (Human Calpain 9/NS1) | Structure (SMILES) | IC50 ([1]; SH-SY5Y) | IC50 ([2]; SH-SY5Y)
< 3 µM | 10 to 25 µM | < 10 µM | < 3 µM | < 3 µM | Cn1ncc2cccc(-c3nn(C(F)F)cc3C(=O)NC(Cc3ccccc3)C(=O)C(N)=O)c21 (centres unmarked) [Compound 34, N-(4-AMINO-3,4-DIOXO-1-PHENYLBUTAN-2-YL)-1-(DIFLUOROMETHYL)-3-(1-METHYL-1H-INDAZOL-7-YL)-1H-PYRAZOLE-4-CARBOXAMIDE] |  | 
< 3 µM | 10 to 25 µM | < 10 µM | < 3 µM | < 3 µM | Cc1nc(-c2ccoc2C)c(C(=O)NC(Cc2ccccc2)C(=O)C(N)=O)o1 (centres unmarked) [Compound 84, N-(4-AMINO-3,4-DIOXO-1-PHENYLBUTAN-2-YL)-2-METHYL-4-(2-METHYLFURAN-3-YL)OXAZOLE-5-CARBOXAMIDE] |  | 
< 3 µM | < 10 µM | 10 to 25 µM | < 3 µM | < 3 µM | Cn1cc(C(=O)NC(Cc2ccccc2)C(=O)C(N)=O)c(-n2cnc3cc(F)ccc32)n1 (centres unmarked) [Compound 48, N-(4-AMINO-3,4-DIOXO-1-PHENYLBUTAN-2-YL)-3-(5-FLUORO-1H-BENZO[D]IMIDAZOL-1-YL)-1-METHYL-1H-PYRAZOLE-4-CARBOXAMIDE] |  | 
< 3 µM | > 25 µM | < 10 µM | < 3 µM | < 3 µM | COC(=O)C(=O)C(Cc1ccccc1)NC(=O)c1cn(C2CC2)nc1-c1ccccc1 (centres unmarked) [Compound 41, METHYL 3-(1-CYCLOPROPYL-3-PHENYL-1H-PYRAZOLE-4-CARBOXAMIDO)-2-OXO-4-PHENYLBUTANOATE] |  | 
